Several values for one entry are separate records, joined by “and”; a condition that tells them apart may be missing. Equal values may be shown once. Read-outs that look alike come from different tables or passages of the source.
Assays:
[1] = assay type: in vivo, human; details: for AUC: AUC0–tn; for AUC(0-inf): AUC0–∞
[2] = assay type: in vivo, human; details: for CL/F, arithmetic mean / Tmax: plasma; for CL/F, arithmetic mean: n = 24; for Tmax: male, human, po
[3] = assay type: in vivo, human; details: for CL/F, arithmetic mean: N = 24; for AUC0‐∞, ratio amenamevir with ritonavir vs amenamevir alone / Cmax, ratio amenamevir with ritonavir vs amenamevir alone: ritonavir 600 mg; for AUC: AUC0‐∞; for AUC / Cmax: LS mean, n = 24; for Tmax: po
[4] = single oral dose of 200 mg ^14C‐amenamevir; ref unpublished data held by Maruho; cited from earlier work
[5] = ^14C‐amenamevir in humans; ref unpublished data held by Maruho; cited from earlier work
[6] = system: human multidrug resistance transporter P‐glycoprotein (P‐gp); details: ^14C‐amenamevir, cells expressing P‐gp; ref unpublished data held by Maruho; cited from earlier work
[7] = system: OATP1B1; details: ^14C‐amenamevir, ref unpublished data held by Maruho; cited from earlier work
[8] = system: OATP1B3; details: ^14C‐amenamevir, ref unpublished data held by Maruho; cited from earlier work
[9] = system: OAT1; details: ^14C‐amenamevir, ref unpublished data held by Maruho; cited from earlier work
[10] = system: OAT3; details: ^14C‐amenamevir, ref unpublished data held by Maruho; cited from earlier work
[11] = system: organic cation uptake transporter‐2; details: ^14C‐amenamevir, organic cation uptake transporter‐2–expressing cells; ref unpublished data held by Maruho; cited from earlier work
[12] = system: cytochrome P450 (CYP) 3A4/5; details: human liver microsomes; ref unpublished data held by Maruho; cited from earlier work
[13] = system: CYP3A4; details: human hepatocytes, 1 to 100 μM; ref unpublished data held by Maruho; cited from earlier work
[14] = system: CYP3A4/5; details: read-out: half maximal inhibitory concentration, very weak or no inhibitory activity, ref unpublished data held by Maruho; cited from earlier work
[15] = system: acyclovir‐resistant VZV strains; details: in vitro; cited from earlier work
[16] = amenamevir plus ketoconazole vs amenamevir alone; cited from earlier work
[17] = cited from earlier work
[18] = saquinavir with a single concomitant dose of 600‐mg ritonavir; cited from earlier work
[19] = amenamevir 400 mg with ritonavir 600 mg
[20] = amenamevir 1200 mg with ritonavir 600 mg
[21] = amenamevir 400‐mg or 1200‐mg with single 600‐mg dose of ritonavir
[22] = male, human, plasma, 1200 mg, amenamevir 1200 mg alone
[23] = male, human, plasma, amenamevir 400 mg with ritonavir 600 mg
[24] = male, human, plasma, amenamevir 1200 mg with ritonavir 600 mg
[25] = Day 12 midazolam 7.5 mg with amenamevir 400 mg vs Day 1 midazolam alone
[26] = Day 19, midazolam 7.5 mg alone, 7 days after last amenamevir dose, n = 18
[27] = after amenamevir 400 mg once daily for 10 days
[28] = male, human, plasma, oral, arithmetic mean, Day 12, midazolam 7.5 mg with amenamevir 400 mg (last of 10 daily doses), n = 18
[29] = male, human, plasma, oral, geometric mean, Day 12, midazolam 7.5 mg with amenamevir 400 mg (last of 10 daily doses), n = 18
[30] = male, human, plasma, oral, LS mean, Day 12, midazolam 7.5 mg with amenamevir 400 mg (last of 10 daily doses), n = 18
[31] = midazolam with rifampicin as inducer

OCc1ncc2n1-c1ccc(Cl)cc1C(c1ccccc1F)=NC2 [1‐hydroxymidazolam]
plasma concentrations, influence of coadministration of amenamevir ([1]; metabolite after midazolam 7.5 mg with amenamevir 400 mg): not influenced

Cc1cccc(C)c1N(CC(=O)Nc1ccc(-c2ncon2)cc1)C(=O)C1CCS(=O)(=O)CC1 [amenamevir]
CL/F, arithmetic mean ([2]; amenamevir 400 mg single oral dose alone (control)): 17.7 L/h
CL/F, arithmetic mean ([2]; amenamevir 1200 mg single oral dose alone (control)): 25.7 L/h
geometric mean (90%CI) AUC0‐∞ as % of that after amenamevir alone ([2]; amenamevir 1200 mg with cyclosporine 100 mg twice daily): ~79(73, 85) % and ~79%
Tmax ([2]; 400 mg): 3 h
Tmax ([2]; 1200 mg): 3 h
CL/F, arithmetic mean ([3]; amenamevir 400 mg single oral dose alone, plasma): 18.3 L/h
geometric mean AUC0‐∞, times higher than after amenamevir alone [3, 19]: about 2.6 times higher
geometric mean Cmax, times higher than after amenamevir alone [3, 19]: about 1.4 times higher
CL/F, arithmetic mean ([3]; amenamevir 400 mg with single dose ritonavir 600 mg): 6.8 L/h
AUC0‐∞, ratio amenamevir with ritonavir vs amenamevir alone ([3]; amenamevir 400 mg): 260%
Cmax, ratio amenamevir with ritonavir vs amenamevir alone ([3]; amenamevir 400 mg): 136%
CL/F, arithmetic mean ([3]; amenamevir 1200 mg single oral dose alone, plasma): 25.7 L/h
geometric mean AUC0‐∞, times higher than after amenamevir alone [3, 20]: ~3.3 times higher
geometric mean Cmax, times higher than after amenamevir alone [3, 20]: ~1.6 times higher
CL/F, arithmetic mean ([3]; amenamevir 1200 mg with single dose ritonavir 600 mg): 7.6 L/h
AUC0‐∞, ratio amenamevir with ritonavir vs amenamevir alone ([3]; amenamevir 1200 mg): 334%
Cmax, ratio amenamevir with ritonavir vs amenamevir alone ([3]; amenamevir 1200 mg): 163%
increase in AUC [3, 21]: > 3 fold
increase in Cmax [3, 21]: about 1.5 fold
AUC ([3]; male, human, plasma, 400 mg, amenamevir 400 mg alone): 23200 ng·h/mL
AUC [3, 22]: 48500 ng·h/mL
Cmax [3, 22]: 3800 ng/mL
AUC [3, 23]: 60200 ng·h/mL
AUC [3, 24]: 162000 ng·h/mL
Cmax [3, 23]: 2520 ng/mL
Cmax [3, 24]: 6210 ng/mL
half-life ([3]; male, human, plasma, geometric mean elimination half‐life, amenamevir alone, irrespective of the dose (400 mg and 1200 mg)): ~7 h
Cmax ([3]; male, human, plasma, oral, 400 mg, amenamevir 400 mg alone): 1850 ng/mL
Tmax ([3]; male, human, plasma, 400 mg): 3 h
Tmax ([3]; male, human, plasma, 1200 mg): 3 h
treatment‐emergent adverse event headache, frequency ([3]; with 400‐mg amenamevir (ritonavir study group)): 16.7%
treatment‐emergent adverse event headache, frequency ([3]; with 1200‐mg amenamevir (ritonavir study group)): 29.2%
^14C radioactivity recovered in feces [4]: 74.6%
plasma protein binding [5]: about 75%
substrate of the human multidrug resistance P‐gp transporter [6]: is a substrate
uptake into transporter‐expressing cells [7]: no uptake
uptake into transporter‐expressing cells [8]: no uptake
uptake into transporter‐expressing cells [9]: no uptake
uptake into transporter‐expressing cells [10]: no uptake
uptake into transporter‐expressing cells [11]: no uptake
role of CYP3A4/5 in the metabolism of amenamevir [12]: main isozymes
induction of CYP3A4 [13]: showed the potential to induce CYP3A4
IC50 [14]: > 100 µM
activity against acyclovir‐resistant VZV strains [15]: good activity
geometric mean ratio for AUCinf (90%CI) [16]: 2.58 (90%CI, 2.32‐2.87)
geometric mean ratio for Cmax (90%CI) [16]: 1.30 (90%CI, 1.17‐1.45)

Cc1ncc2n1-c1ccc(Cl)cc1C(c1ccccc1F)=NC2 [midazolam]
reduction in plasma concentrations of midazolam ([1]; CYP3A‐inducing effect of amenamevir): 52%
CL/F, arithmetic mean ([1]; Day 1, midazolam 7.5 mg oral alone (control), plasma, n = 18): 68.5 L/h
CL/F, arithmetic mean ([1]; Day 12, midazolam 7.5 mg with amenamevir 400 mg (last of 10 daily doses), n = 18): 134.3 L/h
AUC0–∞, LS mean ratio vs control (90%CI) [1, 25]: ~51%
Cmax, LS mean ratio vs control (90%CI) [1, 25]: about 68%
CL/F, arithmetic mean [1, 26]: 63 L/h
Tmax, median [1, 26]: 0.5 h
AUC0–∞, LS mean ratio vs control ([1]; Day 19 midazolam alone vs Day 1 midazolam alone): 110%
CL/F, arithmetic mean ([1]; Day 26, midazolam 7.5 mg alone, 14 days after last amenamevir dose, n = 18): 65.2 L/h
AUC0–∞, LS mean ratio vs control ([1]; Day 26 midazolam alone vs Day 1 midazolam alone): 108%
reduction of Cmax of midazolam [1, 27]: about 32%
reduction of average concentrations (AUC) of midazolam [1, 27]: about 51%
AUC [1, 28]: 59 ng·h/mL
AUC [1, 29]: 56.7 ng·h/mL
AUC(0-inf) [1, 30]: 58 ng·h/mL
AUC(0-inf) [1, 28]: 60.3 ng·h/mL
AUC(0-inf) [1, 29]: 58 ng·h/mL
Cmax [1, 30]: 23 ng/mL
Cmax [1, 28]: 24.5 ng/mL
Cmax [1, 29]: 23.4 ng/mL
half-life ([1]; male, human, plasma, oral, t1/2, arithmetic mean, Day 12, midazolam 7.5 mg with amenamevir 400 mg (last of 10 daily doses), n = 18): 3.7 h
Tmax ([1]; male, human, plasma, po, 7.5 mg): 0.5 h
mean elimination half‐life ([17]; midazolam before rifampicin): 3.2 h
reduction of AUC [17, 31]: 64 fold
reduction of Cmax [17, 31]: 27 fold

CC(C)c1nc(CN(C)C(=O)N[C@H](C(=O)N[C@@H](Cc2ccccc2)C[C@H](O)[C@H](Cc2ccccc2)NC(=O)OCc2cncs2)C(C)C)cs1 [ritonavir, reference compound]
t1/2, geometric mean ([3]; ritonavir 600 mg single dose with amenamevir 400 mg, n 24): 4.5 h

CC(C)(C)NC(=O)[C@@H]1C[C@@H]2CCCC[C@@H]2CN1C[C@@H](O)[C@H](Cc1ccccc1)NC(=O)[C@H](CC(N)=O)NC(=O)c1ccc2ccccc2n1 [saquinavir]
increase of plasma concentrations [18]: > 50 fold
